What was measured:
[1] = biological target: hNav1.1 (SCN1A) (Homo sapiens, UniProt P35498); test: Use-dependent inhibition of the CNS Nav1.1 sodium channel; type: cell-based; conditions: use-dependent block, 25 Hz, pulse 20, read-out: Nav1.1 UDB 25 Hz 10 uM
Method in brief: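 HEK-293 cells stably expressing WT hNav1.1, automated whole-cell patch clamp at 23-25 °C with CsF-based internal and NaCl external solutions, pH 7.35. Compound applied twice, 200 s equilibration; block measured at pulse 20 of a 25 Hz train (0 mV, 20 ms) from −120 mV, as mean % inhibition versus compound-free.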

[2] = biological target: T1, hNaV1.2 (SCN2A) (Homo sapiens, UniProt Q99250); test: Use-dependent inhibition of the CNS Nav1.2 sodium channel; type: cell-based; conditions: use-dependent block, 25 Hz, pulse 20, read-out: Nav1.2 UDB 25 Hz 10 uM
T1 construct: expressed in transfected cells
Method in brief: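 Use-dependent block of human Nav1.2 was measured by automated whole-cell patch clamp (QPatch) in HEK-293 cells stably expressing hNaV1.2 with SCN1B and SCN2B. From a holding potential of −120 mV, a train of 20 pulses to 0 mV (20 ms, 25 Hz) was applied. Peak current at pulse 20 was normalized to the first pulse, and percent inhibition was calculated relative to compound-free recordings.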

T1 sequence (Q99250 whole entry): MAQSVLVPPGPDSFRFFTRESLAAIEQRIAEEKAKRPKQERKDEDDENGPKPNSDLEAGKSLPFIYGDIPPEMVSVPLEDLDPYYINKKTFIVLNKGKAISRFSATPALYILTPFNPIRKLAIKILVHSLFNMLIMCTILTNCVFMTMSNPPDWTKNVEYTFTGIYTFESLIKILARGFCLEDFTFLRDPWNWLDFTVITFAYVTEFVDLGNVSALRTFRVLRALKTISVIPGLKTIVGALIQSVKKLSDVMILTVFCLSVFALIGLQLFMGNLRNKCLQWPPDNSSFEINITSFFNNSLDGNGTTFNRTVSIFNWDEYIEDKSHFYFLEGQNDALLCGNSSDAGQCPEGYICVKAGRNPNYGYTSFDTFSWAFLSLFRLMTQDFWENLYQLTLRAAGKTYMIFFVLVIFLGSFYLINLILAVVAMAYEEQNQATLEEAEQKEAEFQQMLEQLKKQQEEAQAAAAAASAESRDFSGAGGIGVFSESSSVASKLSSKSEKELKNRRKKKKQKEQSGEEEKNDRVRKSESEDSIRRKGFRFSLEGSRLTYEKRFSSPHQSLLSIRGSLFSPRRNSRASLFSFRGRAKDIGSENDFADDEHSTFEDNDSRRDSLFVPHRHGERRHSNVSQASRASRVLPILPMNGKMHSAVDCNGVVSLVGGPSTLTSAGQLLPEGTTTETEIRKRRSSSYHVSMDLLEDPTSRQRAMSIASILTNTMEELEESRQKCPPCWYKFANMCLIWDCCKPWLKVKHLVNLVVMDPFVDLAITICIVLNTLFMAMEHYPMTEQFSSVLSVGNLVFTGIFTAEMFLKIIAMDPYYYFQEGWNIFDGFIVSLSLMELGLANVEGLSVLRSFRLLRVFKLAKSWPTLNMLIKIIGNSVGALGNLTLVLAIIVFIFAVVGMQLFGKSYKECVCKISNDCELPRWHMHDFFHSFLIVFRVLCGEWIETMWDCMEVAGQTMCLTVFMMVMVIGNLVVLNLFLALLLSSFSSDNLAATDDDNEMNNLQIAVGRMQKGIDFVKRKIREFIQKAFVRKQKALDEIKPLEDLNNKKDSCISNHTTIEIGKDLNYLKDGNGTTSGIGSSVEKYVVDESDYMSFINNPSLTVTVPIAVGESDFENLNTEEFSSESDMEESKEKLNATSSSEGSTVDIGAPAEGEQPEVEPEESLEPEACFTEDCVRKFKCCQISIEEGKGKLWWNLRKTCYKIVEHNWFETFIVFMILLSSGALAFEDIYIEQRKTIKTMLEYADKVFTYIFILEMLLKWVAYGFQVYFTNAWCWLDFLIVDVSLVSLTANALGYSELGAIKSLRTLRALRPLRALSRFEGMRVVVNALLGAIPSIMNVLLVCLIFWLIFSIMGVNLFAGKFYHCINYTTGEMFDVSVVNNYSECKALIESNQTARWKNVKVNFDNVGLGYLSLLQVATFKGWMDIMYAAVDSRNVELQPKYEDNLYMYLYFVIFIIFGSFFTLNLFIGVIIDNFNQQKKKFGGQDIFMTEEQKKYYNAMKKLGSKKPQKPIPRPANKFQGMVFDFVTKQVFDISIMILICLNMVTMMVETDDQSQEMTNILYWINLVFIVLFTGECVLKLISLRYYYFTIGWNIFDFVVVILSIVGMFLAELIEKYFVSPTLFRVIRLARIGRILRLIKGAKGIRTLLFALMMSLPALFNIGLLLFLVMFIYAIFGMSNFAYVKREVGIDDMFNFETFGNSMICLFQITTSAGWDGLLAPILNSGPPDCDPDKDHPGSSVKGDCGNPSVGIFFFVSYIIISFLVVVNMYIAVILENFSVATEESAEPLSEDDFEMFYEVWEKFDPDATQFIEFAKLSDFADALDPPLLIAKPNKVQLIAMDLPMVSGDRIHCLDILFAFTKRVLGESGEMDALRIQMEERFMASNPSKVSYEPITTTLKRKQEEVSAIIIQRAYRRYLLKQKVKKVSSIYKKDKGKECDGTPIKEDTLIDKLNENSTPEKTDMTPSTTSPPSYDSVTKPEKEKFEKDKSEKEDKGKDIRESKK
T1 sequence (Q07699 19-218 partner): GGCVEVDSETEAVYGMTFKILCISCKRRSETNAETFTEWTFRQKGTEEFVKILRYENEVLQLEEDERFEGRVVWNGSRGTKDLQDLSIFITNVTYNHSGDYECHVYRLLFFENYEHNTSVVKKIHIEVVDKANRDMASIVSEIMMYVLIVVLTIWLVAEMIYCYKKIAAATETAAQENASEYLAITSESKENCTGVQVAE
T1 sequence (O60939 30-215 partner): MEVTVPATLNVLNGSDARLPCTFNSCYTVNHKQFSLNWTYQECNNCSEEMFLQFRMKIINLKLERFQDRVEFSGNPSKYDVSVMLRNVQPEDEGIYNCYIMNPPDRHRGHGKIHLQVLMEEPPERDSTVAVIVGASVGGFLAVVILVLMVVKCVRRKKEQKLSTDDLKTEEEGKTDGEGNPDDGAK

Row | Compound | inhibition at 10 µM [1] | inhibition at 10 µM [2]
1 | Cc1nc(C)n(C(C)COc2noc3ccc(-c4ccc(OC(F)(F)F)cc4)cc23)n1 (stereo not shown) [Example 79, 3-(2-(3,5-dimethyl-1H-1,2,4-triazol-1-yl)propoxy)-5-(4-(trifluoromethoxy)phenyl)benzo[d]isoxazole] | 36.8% | 34%
2 | CC1(COc2noc3ccc(-c4ccc(OC(F)(F)F)cc4)cc23)COC1 [Example 92, 3-((3-methyloxetan-3-yl)methoxy)-5-(4-(trifluoromethoxy)phenyl)benzo[d]isoxazole] | < 5% | < 5%

From patent publication US9416115B2, “Fused heterocyclic compounds as ion channel modulators” (Gilead Sciences, Inc., priority 2013, dated 2016)
